The target of experiment [1] is T1, USP39_FL (Homo sapiens, UniProt Q53GS9).
T1 construct: made in house
T1 sequence (Q53GS9 1-565): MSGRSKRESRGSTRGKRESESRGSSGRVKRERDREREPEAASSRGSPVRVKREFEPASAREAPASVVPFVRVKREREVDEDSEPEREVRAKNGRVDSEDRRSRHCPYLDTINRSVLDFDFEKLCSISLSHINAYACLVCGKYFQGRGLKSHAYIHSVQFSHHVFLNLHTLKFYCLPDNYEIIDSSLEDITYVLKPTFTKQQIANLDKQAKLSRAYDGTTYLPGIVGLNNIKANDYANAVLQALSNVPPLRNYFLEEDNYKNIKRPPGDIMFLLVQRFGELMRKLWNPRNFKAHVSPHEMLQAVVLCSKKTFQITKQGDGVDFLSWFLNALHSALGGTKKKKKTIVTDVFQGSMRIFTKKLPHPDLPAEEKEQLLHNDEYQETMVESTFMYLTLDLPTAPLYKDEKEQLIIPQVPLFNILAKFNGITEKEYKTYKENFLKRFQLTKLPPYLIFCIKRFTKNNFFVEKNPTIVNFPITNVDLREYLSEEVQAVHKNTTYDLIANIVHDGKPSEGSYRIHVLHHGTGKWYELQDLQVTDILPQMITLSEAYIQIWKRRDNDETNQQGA
In words: Thermal shift assay (TSA) with full-length USP39. The format is binding. From the text:
To identify potential USP39 binders, we purified full‐length USP39 protein (USP39_FL, Figure SI1B) and conducted chemical screening using two complementary strategies. First, an in‐house bioactive collection of approximately 200 small molecules, previously assembled from our studies on cellular reprogramming, was screened using thermal shift assay (TSA, Figure 1a).^[ [2], [23], [24], [25], [26] ^] […] In parallel, a DNA‐encoded library (DEL) screening comprising roughly 600 million unique small molecules was performed. Each DEL compound carries a covalently attached DNA barcode that enables identification after target binding. For this screening, purified USP39_FL protein was immobilized on magnetic beads and incubated with the library; unbound molecules were washed away, and bound DNA‐tagged compounds were eluted. […]
Figure 1 Chemical screening identified thiazole‐containing compounds as USP39 binders. a) AlphaFold3‑predicted structure of full‐length USP39 (USP39_FL) showing three domains: an N‑terminal RS‑like domain (grey), a central zinc‑finger (ZNF) domain (cyan), and a C‑terminal USP domain (gold). […] The ΔT values are therefore given under an empty label, with the protein construct written in front. / Panels b and d: the print is small, so the digits in 55.0, 57.5, -2.5, -2.0 and -1.5 are best readings. […]

In experiment [2] the test system is HeLa-WT proteome. In words: Proteome-wide LC-MS/MS and western blot selectivity analysis in HeLa-WT cells. Format: cell-based, human. As to the method:
(§1) Figure 4 Effective and selective degradation of USP39 in cells by USP39‐PROTACs. a) Optimization of cellular degradation assay in HeLa cells transiently overexpressing USP39‑OFP (HeLa‐USP39‐OFP). […] GAPDH was used as a loading control. g) Proteasome dependence of USP39 degradation. HeLa‐WT cells were co‐treated with MG132 (0.25 µM) or DMSO control and USP39_PROTAC_V1 for 24 h ST. h) Representative immunofluorescence images of HeLa‐USP39_OFP cells treated with DMSO (NT), USP39_PROTAC_V1 (10 nM, 24 h), or USP39_PROTAC_V1 + MLN4924 (1 µM), stained for USP39 (red) and nuclei (blue). i) Quantification of USP39 degradation by fluorescence microscopy, showing DC50 values of 13 nM without MLN4924 (orange) and 204 nM with MLN4924 (blue) (MLN4924 = 5 uM). j) VHL‐dependence of PROTAC‐induced degradation. Schematic of PROTAC recruitment to VHL via hydroxyl‐proline interactions (His115, Ser111). Western blot comparing USP39 levels in VHL WT and VHL KO HeLa cells treated with USP39_PROTAC_V1. k) Fluorescence assay in HEK293T cells co‐expressing USP39‑OFP and either VHL_WT‑EGFP or VHL_m (Δ91–121). […] Comparison of untreated (NT) and USP39_PROTAC_V1–treated (10 nM, 24 h) samples. Percent spliced/unspliced (S/U) ratios are shown, reflecting USP39‐deficiency–associated splicing defects. Data represent at least four independent biological replicates.
To assess the selectivity of USP39 degradation, a proteome‐wide analysis was conducted using LC‐MS/MS based proteomics. […] These finding were further validated by western blot (WB) analysis, which confirmed consistent downregulation of USP39, ISG15, and NDRG1.

The target in experiment [3] is T2, USP39-OFP (Homo sapiens, UniProt Q53GS9).
T2 construct: expressed in transfected cells; host or cells: HEK293T
T2 sequence (Q53GS9 1-565): T1 sequence (Q53GS9 1-565)
The experiment in a line: Fluorescence degradation assay in HEK293T cells co-expressing USP39-OFP and VHL_m (Δ91–121). Format: cell-based. As to the method: as §1, with “replicates. […]” for “replicates.”

`Cc1ncsc1-c1ccc(CNC(=O)C2CC(O)CN2C(=O)C(NC(=O)CCOCCOCCOCCNC(=O)c2csc(Nc3ccc(Cl)cc3)n2)C(C)(C)C)cc1` (centres unmarked) [USP39_PROTAC_V1]: the “∆T (T max_Compound − T max_USP39), USP39_FL” value in experiment [1] is “comparable to that induced by USP39_B1”. In experiment [2] (5 nM and 50 nM, 24 h, over 6000 detectable proteins, p < 0.0001, log2FC < -4), the “USP39 level in proteome-wide analysis” value is on record as “most significantly downregulated protein”. In experiment [2] (5 nM and 50 nM, 24 h, proteomics, validated by WB), the “NDRG1 and ISG15 levels (off-target)” value was “significant downregulation”. In addition, the “USP5 and USP10 levels (homologues)” value in experiment [2] (proteomic and immunoblot analyses) is “remained unaffected”. In experiment [3], the “Fold reduction of degradation effect in VHL_m versus VHL_WT cells” value was “more than 80 fold”.

The record behind these values is PMC12851022, “Targeting the Spliceosomal Protein USP39 Through Allosteric Ligands and PROTAC‐Induced Degradation” (Angewandte Chemie (International Ed. in English), 2025).
